In patent US6824760B2, “Imaging agents, precursors thereof and methods of manufacture” (priority 2001, dated 2004):
Read-outs that look alike come from different tables or passages of the source.

Tests used:
[1] = system: breast cancer cells, cell line 13762; experiment: In vitro cellular uptake assay; type: cell-based
Method: After 0.5-4 hours incubation, the cells were washed with phosphate buffered saline 3 times and followed by trypsin to loosen the cells. The cells were counted by a gamma counter.

[2] = system: Fischer 344 tumor-bearing rats; conditions: for Blood / Bone / Heart / Intestine / Kidney / Liver / Lung / Muscle / Spleen / Stomach / Thyroid / Tumor / Tumor/Blood / Tumor/Lung / Tumor/Muscle: breast tumor-bearing Fischer 344 rats, 10 μCi/rat i.v.; for Tumor/Blood / Tumor/Lung / Tumor/Muscle: ratio
Method: Biodistribution studies were conducted at 30 min, 2 and 4 hours.

[3] = tumor-bearing rats, 30 min, 2 and 4 hours

Which results are given for `CC(N)(Cc1ccc(OCCC[18F])cc1)C(=O)O` (stereo not drawn) [^18F-FPAMT, 3-^18F-fluoropropyl-α-methyltyrosine]?
cellular uptake compared with ^18F-FDG ([1]; breast cancer cell line 13762, 0.5 and 2 hours incubation): slightly higher uptake than ^18F-FDG; cellular uptake as a function of time ([1]; breast cancer cell line 13762, 2 μCi, 0.5-4 hours incubation): increased uptake; Blood ([2]; 30 min): 0.638 ± 0.021 % of injected dose per gram of tissue weight; Bone ([2]; 30 min): 0.447 ± 0.045 % of injected dose per gram of tissue weight; Heart ([2]; 30 min): 0.445 ± 0.019 % of injected dose per gram of tissue weight; Intestine ([2]; 30 min): 0.838 ± 0.058 % of injected dose per gram of tissue weight; Kidney ([2]; 30 min): 8.060 ± 0.101 % of injected dose per gram of tissue weight; Liver ([2]; 30 min): 6.542 ± 1.142 % of injected dose per gram of tissue weight; Lung ([2]; 30 min): 4.812 ± 0.457 % of injected dose per gram of tissue weight; Muscle ([2]; 30 min): 0.318 ± 0.043 % of injected dose per gram of tissue weight; Spleen ([2]; 30 min): 0.404 ± 0.023 % of injected dose per gram of tissue weight; Stomach ([2]; 30 min): 0.440 ± 0.052 % of injected dose per gram of tissue weight; Thyroid ([2]; 30 min): 0.730 ± 0.126 % of injected dose per gram of tissue weight; Tumor ([2]; 30 min): 0.454 ± 0.016 % of injected dose per gram of tissue weight; Blood ([2]; 2 h): 0.298 ± 0.032 % of injected dose per gram of tissue weight; Bone ([2]; 2 h): 1.256 ± 0.117 % of injected dose per gram of tissue weight; Heart ([2]; 2 h): 0.219 ± 0.024 % of injected dose per gram of tissue weight; Intestine ([2]; 2 h): 0.627 ± 0.209 % of injected dose per gram of tissue weight; Kidney ([2]; 2 h): 7.721 ± 1.027 % of injected dose per gram of tissue weight; Liver ([2]; 2 h): 3.587 ± 0.500 % of injected dose per gram of tissue weight; Lung ([2]; 2 h): 0.541 ± 0.084 % of injected dose per gram of tissue weight; Muscle ([2]; 2 h): 0.154 ± 0.017 % of injected dose per gram of tissue weight; Spleen ([2]; 2 h): 0.215 ± 0.029 % of injected dose per gram of tissue weight; Stomach ([2]; 2 h): 0.190 ± 0.024 % of injected dose per gram of tissue weight; Thyroid ([2]; 2 h): 0.860 ± 0.045 % of injected dose per gram of tissue weight; Tumor ([2]; 2 h): 0.312 ± 0.024 % of injected dose per gram of tissue weight; Blood ([2]; 4 h): 0.081 ± 0.007 % of injected dose per gram of tissue weight; Bone ([2]; 4 h): 1.502 ± 0.214 % of injected dose per gram of tissue weight; Heart ([2]; 4 h): 0.054 ± 0.007 % of injected dose per gram of tissue weight; Intestine ([2]; 4 h): 0.148 ± 0.015 % of injected dose per gram of tissue weight; Kidney ([2]; 4 h): 1.467 ± 0.236 % of injected dose per gram of tissue weight; Liver ([2]; 4 h): 0.930 ± 0.049 % of injected dose per gram of tissue weight; Lung ([2]; 4 h): 0.105 ± 0.008 % of injected dose per gram of tissue weight; Muscle ([2]; 4 h): 0.055 ± 0.012 % of injected dose per gram of tissue weight; Spleen ([2]; 4 h): 0.067 ± 0.009 % of injected dose per gram of tissue weight; Stomach ([2]; 4 h): 0.070 ± 0.002 % of injected dose per gram of tissue weight; Thyroid ([2]; 4 h): 1.220 ± 0.260 % of injected dose per gram of tissue weight; Tumor ([2]; 4 h): 0.069 ± 0.003 % of injected dose per gram of tissue weight; Tumor/Blood ([2]; 30 min): 0.712 ± 0.013; Tumor/Lung ([2]; 30 min): 0.095 ± 0.006; Tumor/Muscle ([2]; 30 min): 1.464 ± 0.138; Tumor/Blood ([2]; 2 h): 1.079 ± 0.171; Tumor/Lung ([2]; 2 h): 0.599 ± 0.079; Tumor/Muscle ([2]; 2 h): 2.057 ± 0.176; Tumor/Blood ([2]; 4 h): 0.853 ± 0.036; Tumor/Lung ([2]; 4 h): 0.658 ± 0.081; Tumor/Muscle ([2]; 4 h): 1.322 ± 0.341; Tumor/blood ratio as a function of time [2, 3]: increased as a function of time; Tumor/muscle ratio as a function of time [2, 3]: increased as a function of time; bone uptake (suggesting in vivo defluorination) ([2]; tumor-bearing rats, 2 hours): increased bone uptake
